# Reference: PubChem BioAssay AID248 (DTP/NCI, 2004)
# “And” between values parts separate entries of the source, which are not always exact repeats. Identical values can stand only once. Toxic doses and inconclusive results are not listed.
# Tested on: L1210 leukemia ip in BDF1 mice, survival T/C
# Assay: NCI In Vivo Anticancer Drug Screen. Data for tumor model L1210 Leukemia (intraperitoneal) in B6D2F1 (BDF1) mice
# Details: endpoint: mean survival time, higher = longer survival
# How it was run: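 Transplanted-tumor mice were given test agent; controls received vehicle only. Survival readings from the two groups were divided (treated over control).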
# [1] = dose: 100.0 mg/kg/injection, schedule: Q04DX002 (ip), vehicle: Klucel (hydroxypropylcellulose) (HPC)
# [2] = dose: 200.0 mg/kg/injection, schedule: Q04DX002 (ip), vehicle: Klucel (hydroxypropylcellulose) (HPC)
# [3] = dose: 400.0 mg/kg/injection, schedule: Q04DX002 (ip), vehicle: Klucel (hydroxypropylcellulose) (HPC)
# [4] = dose: 100.0 mg/kg/injection, schedule: Q01DX001 (ip), vehicle: saline
# [5] = dose: 100.0 mg/kg/injection, schedule: Q04DX003 (ip), vehicle: saline
# [6] = dose: 200.0 mg/kg/injection, schedule: Q01DX001 (ip), vehicle: saline
# [7] = dose: 200.0 mg/kg/injection, schedule: Q04DX003 (ip), vehicle: saline
# [8] = dose: 400.0 mg/kg/injection, schedule: Q01DX001 (ip), vehicle: saline
# [9] = dose: 400.0 mg/kg/injection, schedule: Q04DX003 (ip), vehicle: saline
# [10] = dose: 100.0 mg/kg/injection, schedule: Q04DX003 (ip), vehicle: saline with Tween-80
# [11] = dose: 200.0 mg/kg/injection, schedule: Q04DX003 (ip), vehicle: saline with Tween-80
# [12] = dose: 400.0 mg/kg/injection, schedule: Q04DX003 (ip), vehicle: saline with Tween-80
# [13] = dose: 6.25 mg/kg/injection, schedule: Q01DX009 (ip), vehicle: saline with Tween-80
# [14] = dose: 12.5 mg/kg/injection, schedule: Q01DX009 (ip), vehicle: saline with Tween-80
# [15] = dose: 150.0 mg/kg/injection, schedule: Q04DX003 (ip), vehicle: saline
structure (smiles),measurement,setting,value
NCCCCCCCCCCC(=O)O,T/C,[1],115 % of control
same,T/C,[2],95 % of control
same,T/C,[3],101 % of control
c1ccc2c(c1)CC([CH2][Hg][CH2]C1Cc3ccccc3O1)O2 (stereo not given),T/C,"dose: 100.0 mg/kg/injection, schedule: Q01DX001 (ip), vehicle: carboxymethylcellulose (CMC)",101 % of control
same,T/C,"dose: 200.0 mg/kg/injection, schedule: Q01DX001 (ip), vehicle: carboxymethylcellulose (CMC)",95 % of control
COc1ccccc1OC(=O)c1ccccc1O,T/C,[4],107 % of control
same,T/C,[5],90 % of control
same,T/C,[6],100 % of control
same,T/C,[7],90 % of control
same,T/C,[8],94 % of control
same,T/C,[9],88 % of control
Nc1nc(SCc2ccccc2)c2ncn(C3CC(O)C(CO)O3)c2n1 (stereo not given),T/C,"dose: 7.0 mg/kg/injection, schedule: Q01DX015 (ip), vehicle: saline",118 % of control
same,T/C,"dose: 12.0 mg/kg/injection, schedule: Q01DX015 (ip), vehicle: saline",168 % of control
same,T/C,"dose: 20.0 mg/kg/injection, schedule: Q01DX015 (ip), vehicle: saline",172 % of control
same,T/C,"dose: 34.0 mg/kg/injection, schedule: Q01DX015 (ip), vehicle: saline",153 % of control
same,T/C,"dose: 100.0 mg/kg/injection, schedule: Q01DX005 (ip), vehicle: saline",97 % of control
same,T/C,"dose: 200.0 mg/kg/injection, schedule: Q01DX005 (ip), vehicle: saline",113 % of control
same,T/C,[8],157 % of control
CC(N)CSC(=O)c1ccccc1 (stereo not given),T/C,[10],100 % of control
same,T/C,[11],100 % of control
same,T/C,[12],94 % of control
O=C(O)c1cc(Br)cc(I)c1Cl,T/C,[1],102 % of control
same,T/C,[2],94 % of control
Cc1c2cnccc2c(C)c2c1c1ccccc1n2CC1CO1 (stereo not given),T/C,"dose: 0.78 mg/kg/injection, schedule: Q01DX009 (ip), vehicle: Klucel (hydroxypropylcellulose) (HPC)",90 % of control
same,T/C,"dose: 1.56 mg/kg/injection, schedule: Q01DX009 (ip), vehicle: Klucel (hydroxypropylcellulose) (HPC)",97 % of control
same,T/C,"dose: 1.56 mg/kg/injection, schedule: Q01DX009 (ip), vehicle: saline with Tween-80",113 % of control
same,T/C,"dose: 3.12 mg/kg/injection, schedule: Q01DX009 (ip), vehicle: Klucel (hydroxypropylcellulose) (HPC)",100 % of control
same,T/C,"dose: 3.13 mg/kg/injection, schedule: Q01DX009 (ip), vehicle: saline with Tween-80",110 % of control
same,T/C,"dose: 4.12 mg/kg/injection, schedule: Q01DX009 (ip), vehicle: Klucel (hydroxypropylcellulose) (HPC)",120 % of control
same,T/C,"dose: 6.25 mg/kg/injection, schedule: Q01DX009 (ip), vehicle: Klucel (hydroxypropylcellulose) (HPC)",94 % of control and 122 % of control
same,T/C,[13],113 % of control
same,T/C,"dose: 6.25 mg/kg/injection, schedule: Q04DX003 (ip), vehicle: saline",110 % of control
same,T/C,"dose: 12.5 mg/kg/injection, schedule: Q01DX009 (ip), vehicle: Klucel (hydroxypropylcellulose) (HPC)",113 % of control
same,T/C,[14],120 % of control
same,T/C,"dose: 25.0 mg/kg/injection, schedule: Q01DX009 (ip), vehicle: Klucel (hydroxypropylcellulose) (HPC)",119 % of control and 86 % of control
same,T/C,"dose: 25.0 mg/kg/injection, schedule: Q04DX003 (ip), vehicle: saline",123 % of control
same,T/C,"dose: 65.0 mg/kg/injection, schedule: Q04DX003 (ip), vehicle: saline",108 % of control and 117 % of control
same,T/C,[5],104 % of control and 114 % of control
same,T/C,[15],108 % of control
O=C(/C=C/c1cccc(Cl)c1)c1ccccc1,T/C,"dose: 50.0 mg/kg/injection, schedule: Q04DX002 (ip), vehicle: saline with Tween-80",108 % of control
same,T/C,"dose: 100.0 mg/kg/injection, schedule: Q04DX002 (ip), vehicle: saline with Tween-80",115 % of control
same,T/C,"dose: 200.0 mg/kg/injection, schedule: Q04DX002 (ip), vehicle: saline with Tween-80",97 % of control
CC1CN(c2ccccc2)NC1=O (stereo not given),T/C,[5],97 % of control
same,T/C,[7],95 % of control
same,T/C,[9],97 % of control
COc1cc(OC)c(NC(=O)Nc2cc([N+](=O)[O-])ccc2C)cc1Cl,T/C,[1],97 % of control
same,T/C,[2],108 % of control
same,T/C,[3],114 % of control
CSc1ccc(NC(=O)N(Cc2ccccc2)c2ccccc2)cc1,T/C,"dose: 100.0 mg/kg/injection, schedule: Q01DX009 (ip), vehicle: Klucel (hydroxypropylcellulose) (HPC)",106 % of control
same,T/C,"dose: 200.0 mg/kg/injection, schedule: Q01DX009 (ip), vehicle: Klucel (hydroxypropylcellulose) (HPC)",101 % of control
same,T/C,"dose: 400.0 mg/kg/injection, schedule: Q01DX009 (ip), vehicle: Klucel (hydroxypropylcellulose) (HPC)",95 % of control
CC(=O)NCCc1ccc(NCCCc2c(-c3ccccc3)nc(N)[nH]c2=O)cc1,T/C,"dose: 100.0 mg/kg/injection, schedule: Q01DX009 (ip), vehicle: saline",97 % of control
same,T/C,"dose: 200.0 mg/kg/injection, schedule: Q01DX009 (ip), vehicle: saline",95 % of control
same,T/C,"dose: 400.0 mg/kg/injection, schedule: Q01DX009 (ip), vehicle: saline",101 % of control
C=CC(OC(C)=O)OC(C)=O,T/C,"dose: 2.8 mg/kg/injection, schedule: Q01DX Z (ip), vehicle: carboxymethylcellulose (CMC)",94 % of control
same,T/C,"dose: 4.2 mg/kg/injection, schedule: Q01DX Z (ip), vehicle: carboxymethylcellulose (CMC)",95 % of control
same,T/C,"dose: 6.2 mg/kg/injection, schedule: Q01DX Z (ip), vehicle: carboxymethylcellulose (CMC)",93 % of control
same,T/C,[13],91 % of control
same,T/C,"dose: 6.25 mg/kg/injection, schedule: Q01DX Z (ip), vehicle: carboxymethylcellulose (CMC)",89 % of control
same,T/C,"dose: 9.4 mg/kg/injection, schedule: Q01DX Z (ip), vehicle: carboxymethylcellulose (CMC)",98 % of control and 111 % of control
same,T/C,[14],104 % of control
same,T/C,"dose: 12.5 mg/kg/injection, schedule: Q04DX003 (ip), vehicle: saline with Tween-80",103 % of control
same,T/C,"dose: 25.0 mg/kg/injection, schedule: Q01DX009 (ip), vehicle: saline with Tween-80",110 % of control
same,T/C,"dose: 25.0 mg/kg/injection, schedule: Q04DX003 (ip), vehicle: saline with Tween-80",111 % of control
CC/C(=N/O)c1ccccc1,T/C,"dose: 100.0 mg/kg/injection, schedule: Q04DX003 (ip), vehicle: saline sonified",110 % of control
same,T/C,"dose: 200.0 mg/kg/injection, schedule: Q04DX003 (ip), vehicle: saline sonified",95 % of control
same,T/C,"dose: 400.0 mg/kg/injection, schedule: Q04DX003 (ip), vehicle: saline sonified",93 % of control
O=C1CC(=O)C(Cl)=C1Cl,T/C,"dose: 15.0 mg/kg/injection, schedule: Q01DX001 (ip), vehicle: carboxymethylcellulose (CMC)",93 % of control
O=C(O)c1cc(N2CCCC2)ccn1,T/C,[4],96 % of control
same,T/C,[6],101 % of control
O=C(Nc1ccccc1)Oc1c(Cl)c(Cl)c(Cl)c(Cl)c1Cl,T/C,[1],98 % of control
same,T/C,[2],104 % of control
CCS(=O)(=O)C(=CN(C)C)S(=O)(=O)CC,T/C,"dose: 75.0 mg/kg/injection, schedule: Q04DX003 (ip), vehicle: saline",97 % of control
same,T/C,[15],97 % of control
same,T/C,"dose: 300.0 mg/kg/injection, schedule: Q04DX003 (ip), vehicle: saline",92 % of control
COc1cc(Cc2cc(OC)c(OC)cc2[N+](=O)[O-])c([N+](=O)[O-])cc1OC,T/C,[5],108 % of control
same,T/C,[7],108 % of control
same,T/C,[9],120 % of control
COCCN=C(N)C(N)=NCCOC,T/C,[10],102 % of control
same,T/C,[5],97 % of control
same,T/C,[11],102 % of control
same,T/C,[7],100 % of control
same,T/C,[12],95 % of control
same,T/C,[9],88 % of control
O=C(O)c1ccccc1-c1ccc([N+](=O)[O-])cc1Cl,T/C,"dose: 177.0 mg/kg/injection, schedule: Q01DX001 (ip), vehicle: carboxymethylcellulose (CMC)",106 % of control
same,T/C,"dose: 266.0 mg/kg/injection, schedule: Q01DX001 (ip), vehicle: carboxymethylcellulose (CMC)",98 % of control
same,T/C,"dose: 400.0 mg/kg/injection, schedule: Q01DX001 (ip), vehicle: carboxymethylcellulose (CMC)",104 % of control
O=[N+]([O-])C1CC(O)CCC1SSC1CCC(O)CC1[N+](=O)[O-] (stereo not given),T/C,"dose: 100.0 mg/kg/injection, schedule: Q04DX002 (ip), vehicle: other",106 % of control
same,T/C,"dose: 200.0 mg/kg/injection, schedule: Q04DX002 (ip), vehicle: other",103 % of control
same,T/C,"dose: 400.0 mg/kg/injection, schedule: Q04DX002 (ip), vehicle: other",98 % of control
CC(C)COC(C[N+](=O)[O-])C(Cl)(Cl)Cl (stereo not given),T/C,"dose: 100.0 mg/kg/injection, schedule: Q01DX009 (ip), vehicle: saline with Tween-80",98 % of control
same,T/C,[10],92 % of control
same,T/C,"dose: 200.0 mg/kg/injection, schedule: Q01DX009 (ip), vehicle: saline with Tween-80",89 % of control
same,T/C,[11],90 % of control
same,T/C,[12],92 % of control
